How the values were obtained:
Assay type in all cases: in vivo
[1] = system: melon aphid (Aphis gossypii Glover); test: Melon aphid plant foliar bioassay on flowering chrysanthemums; details: each concentration (1,000, 3,000, 10,000 ppm); after 36 hours; pre-count mean of about 60
Description: Treatment of melon aphid (Aphis gossypii Glover) is conducted as follows. Plants were grown in […] pots in planting soil in greenhouse. Chrysantemums (c. morifolum) were used for melon aphid plant foliar bioassays.
Flowering plants were infested and pre-count population size for each plant were taken and number of mean of aphids nymphs per leaf calculated. The plants were sprayed to runoff (about 5 ml) with an aqueous formulation containing 1,000 ppm, 3,000 ppm, and 10,000 ppm concentration of cinnamic aldehyde, and a negative control containing only H2O. After 36 hours, the number of insects on the leaves sprayed with a given test formulation was determined and compared with that of insects on leaves sprayed with negative control only. Mean aphid nymphs per leaf were determined to be less than 10 for each cinnamic aldehyde concentration compared to a pre-count mean of about 60.

[2] = system: two-spotted spider mite, Tetranychus urticae; test: Spider mite treated petri dish contact bioassay; details: Tetranychus urticae, 24 hours contact, read-out: Percent Mortality (24 hours)
Description: Activity of cinnamic aldehyde and/or coniferyl aldehyde against two-spotted spider mite, Tetranychus urticae is determined as follows. In a double blind experiment, intersurfaces of petri dishes (60 mm diameter) were treated with 100 μl of a test formulation and allowed to air dry and used within the hour. Twenty adult spider mites were put in each dish and the percent of mortality of the spider mites after 24 hours in contact with the treated dishes Was determined.

[3] = system: thrips insects (Frankliniella occidentalis); test: Residual activity on treated filter paper against thrips; details: rehydrated 24 and 72 hours after spraying, thrips exposed one hour
Description: In the first experiment, two ml of two concentrations of CNMA (0.3 and 1%) were sprayed on filter paper (Whatman). As a negative control, two ml of water was also sprayed on filter paper. Twenty-four hours later, two ml of water were sprayed on treatment and control filter paper, which were then dried for 30 min. Approximately 30 thrips insects (Frankliniella occidentalis) were introduced onto the treated filter papers and the number of F. occidentalis were observed after one hour. Mean mortality was calculated for each treatment. After 72 hours, the treated filter papers were flipped over and only the negative control filter paper and the filter paper treated with 1% CNMA were sprayed with 2 ml of water and allowed to dry for 30 minutes. Approximately 30 thrips were introduced onto the two treated filter papers and after one hour the number of dead F. occidentalis were observed and the mean mortality calculated for each treatment. A similar assay was conducted using AHCNMA. Mean mortality was higher for rehydrated filter papers compared to non-rehydrated filter papers over time.

[4] = system: larvae of Culex quinquefasciatus mosquito; test: Mosquito larvicidal bioassay
Description: Larvicidal activity of test formulations at varying concentrations was tested in a double blind bioassay on larvae of Culex quinquefasciatus mosquito. Twenty-five late 3rd-instar larvae of Culex quinquefasciatus were placed in 100×80 mm Purex #3250 glass containers. 250 ml distilled H2O was pipetted into the containers. One ml of test formulation containing 10 to 25,000 ppm cinnamic aldehyde in vehicle (2% by volume Tween 80 and 6% sodium bicarbonate in distilled H2O) was pipetted into each container. A control blank using 1 ml distilled H2O instead of a test formulation was also prepared.
All treated and untreated glass containers were placed in temperature controlled room at 29° C. Each container was evaluated for larvae mortality at 24 hour intervals. The number of dead larvae were reported. See Table 5 for results of the bioassay. Concentrations above 5,000 ppm cinnamic aldehyde gave 90% mortality at 24 and 48 hours.

[5] = 1 ml of 100 ppm formulation in 250 ml H2O
[6] = 1 ml of 2,500 ppm formulation in 250 ml H2O
[7] = 1 ml of 5,000 ppm formulation in 250 ml H2O
[8] = 1 ml of 12,500 ppm formulation in 250 ml H2O
[9] = 1 ml of 25,000 ppm formulation in 250 ml H2O

Compound: O=C/C=C/c1ccccc1 [CNMA, cinnamic aldehyde]
- Mean aphid nymphs per leaf [1]: less than 10
- mortality at 10 ppm ([2]; 10 ppm in 2% Tween 80, 6% NaHCO3): 51.7%
- mortality at 100 ppm ([2]; 100 ppm in 2% Tween 80, 6% NaHCO3): 56%
- mortality at 2500 ppm ([2]; 2,500 ppm in 2% Tween 80, 6% NaHCO3): 78%
- mortality at 5000 ppm ([2]; 5,000 ppm in 2% Tween 80, 6% NaHCO3): 66.4%
- mortality at 12500 ppm ([2]; 12,500 ppm in 2% Tween 80, 6% NaHCO3): 98.6%
- mortality at 25000 ppm ([2]; 25,000 ppm in 2% Tween 80, 6% NaHCO3): 99.2%
- residual activity in words [3]: residual activity
- Percent Mortality (time) 24 hours ([4]; 1 ml of 10 ppm formulation (2% Tween 80, 6% sodium bicarbonate) in 250 ml H2O): 0%
- Percent Mortality (time) 48 hours ([4]; 1 ml of 10 ppm formulation in 250 ml H2O): 0%
- Percent Mortality (time) 24 hours [4, 5]: 2%
- Percent Mortality (time) 48 hours [4, 5]: 2%
- Percent Mortality (time) 24 hours [4, 6]: 4%
- Percent Mortality (time) 48 hours [4, 6]: 4%
- Percent Mortality (time) 24 hours [4, 7]: 8%
- Percent Mortality (time) 48 hours [4, 7]: 20%
- Percent Mortality (time) 24 hours [4, 8]: 90%
- Percent Mortality (time) 48 hours [4, 8]: 90%
- Percent Mortality (time) 24 hours [4, 9]: 100%
- Percent Mortality (time) 48 hours [4, 9]: 100%
- mortality ([4]; concentrations above 5,000 ppm, at 24 and 48 hours): 90%

— patent US6750256B1, “Use of aromatic aldehydes as insecticides” (Proguard, Inc., priority 1994, dated 2004)
